Like-named read-outs stand apart in the source and are kept apart here.
Legend:
[1] = PFOA, stated in description as comparison; cited from earlier work
[2] = Log POW, distribution coefficient between 1-octanol and water; settings: fluorinated surfactants used in Examples; octanol/water (1:1)
Text: The Log POW is distribution coefficient between 1-octanol and water. The Log POW is represented by Log P, wherein P is the ratio of a concentration of a fluorinated surfactant in an octanol phase to a concentration of a fluorinated surfactant in a water phase when an octanol/water (1:1) mixture containing a fluorinated surfactant is phase-separated.

Row | SMILES | Log POW [1] | Log POW [2]
1 | N.O=C(O)C(F)(F)C(F)(F)C(F)(F)C(F)(F)C(F)(F)C(F)(F)C(F)(F)F [PFOA, perfluoro octanoic acid ammonium] | 3.5 | 
2 | N.O=C(O)C(F)(OC(F)(F)C(F)(OC(F)(F)F)C(F)(F)F)C(F)(F)F (centres unmarked) [CF3—O—CF(CF3)CF2O—CF(CF3) COONH4] |  | 3.4
